Measured values reported in patent US10941137B2, “Difluoromethyl-phenyl triazoles” (Boehringer Ingelheim International GmbH, priority 2018, dated 2021).

Target: T1, α5β2γ2 GABAA receptor (Homo sapiens, UniProt P18507+P31644)
T1 sequence (P31644 32-462): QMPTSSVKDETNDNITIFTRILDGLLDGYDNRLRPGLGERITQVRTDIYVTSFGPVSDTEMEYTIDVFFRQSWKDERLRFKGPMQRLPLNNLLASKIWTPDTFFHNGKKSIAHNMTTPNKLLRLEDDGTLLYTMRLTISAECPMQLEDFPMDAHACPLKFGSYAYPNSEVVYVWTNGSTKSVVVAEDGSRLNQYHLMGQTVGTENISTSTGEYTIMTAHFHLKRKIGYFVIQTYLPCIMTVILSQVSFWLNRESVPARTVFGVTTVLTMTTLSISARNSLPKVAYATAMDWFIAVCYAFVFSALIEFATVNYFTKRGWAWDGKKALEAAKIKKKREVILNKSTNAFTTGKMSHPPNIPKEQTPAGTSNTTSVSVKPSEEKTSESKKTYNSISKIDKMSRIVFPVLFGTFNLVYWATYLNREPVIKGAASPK
T1 sequence (P18507 40-376 limits assumed): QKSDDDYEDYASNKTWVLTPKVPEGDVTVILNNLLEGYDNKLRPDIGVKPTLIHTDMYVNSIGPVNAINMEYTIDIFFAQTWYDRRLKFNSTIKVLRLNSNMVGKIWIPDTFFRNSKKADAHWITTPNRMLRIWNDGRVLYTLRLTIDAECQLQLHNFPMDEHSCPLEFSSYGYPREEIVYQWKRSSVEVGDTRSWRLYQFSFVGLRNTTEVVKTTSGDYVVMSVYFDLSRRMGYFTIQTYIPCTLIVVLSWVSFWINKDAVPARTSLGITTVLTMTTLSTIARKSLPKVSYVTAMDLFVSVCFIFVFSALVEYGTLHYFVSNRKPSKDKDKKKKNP
Test: Assay B: modulation of α5β2γ2 GABAA receptor, two-electrode voltage clamp in oocytes
Type: cell-based
Settings: for EC50: oocytes, TEVC, co-application with GABA 0.5 μM (EC5-20), read-out: Assay B: GABAA α5β3γ2 EC50
Experimental: Assay B: In vitro evaluation of modulation of α5β2γ2 GABAA receptor.
Modulatory efficacy of compounds of formula (I) is determined electrophysiological recordings in oocytes using the two-electrode voltage clamp (TEVC) technique. Oocytes are injected with cRNA for human GABAA receptor subunits α5, β2 and γ2 in a 3:1:3 ratio and modulatory efficacy is evaluated by co-applications with a submaximal EC5-20 GABA concentration (0.5 μM) termed GABA control. As a standard, the compounds are tested in five concentrations (3.16, 0.316, 0.0316, 0.00316 and 0.000316 μM) on each oocyte starting with the lowest concentration. Background subtracted peak current amplitudes are normalized to the respective GABA control current, converted to % change and depicted +/−S.E.M. as a function of increasing compound concentrations. Plotted datapoints are fitted to the empirical Hill equation using non-linear regression. 95% confidence intervals for maximal efficacy (Bottom) and potency (Log EC50) are derived from this fitting routine.

Structure (SMILES) | Assay B: GABAA α5β3γ2 Emax vs GABA | EC50
Cc1n[nH]c(C)c1-c1ccc(OCc2c(C)nnn2-c2ccc(C(F)F)cc2)nn1 [Example 12, 3-({1-[4-(difluoromethyl)phenyl]-4-methyl-1H-1,2,3-triazol-5-yl}methoxy)-6-(3,5-dimethyl-1H-pyrazol-4-yl)pyridazine] | -26% | 13 nM
COc1ncc(-c2ccc(OCc3c(C)nnn3-c3ccc(C(F)F)cc3)nn2)cn1 [Example 3] | -44.3% | 13.5 nM
Cc1nnn(-c2ccc(C(F)F)cc2)c1COc1ccc(-n2cc(C#N)cn2)nn1 [Example 31] | -23% | 7.4 nM
Cc1nnn(-c2ccc(C(F)F)cc2)c1COc1ccc(-n2ccc(C(F)(F)F)n2)nn1 [Example 24] | -9% | 76.9 nM
Cc1nnn(-c2ccc(C(F)F)cc2)c1COc1ccc(-n2cnc(C[N+](C)(C)C)c2)nn1.O=C([O-])C(F)(F)F [Example 36, ({1-[6-({1-[4-(difluoromethyl)phenyl]-4-methyl-1H-1,2,3-triazol-5-yl}methoxy)pyridazin-3-yl]-1H-imidazol-4-yl}methyl)trimethylazanium trifluoroacetate] | -31.5% | 6.2 nM
Cc1nnn(-c2ccc(C(F)F)cc2)c1COc1ccc(-n2cnc(S(C)(=O)=O)c2)nn1 [Example 19] | -25% | 7.7 nM
Cc1nnn(-c2ccc(C(F)F)cc2)c1COc1ccc(-c2cnn(C3CC3)c2)nn1 [Example 9] | -12% | 47.5 nM
Cc1cc(-c2ccc(OCc3c(C)nnn3-c3ccc(C(F)F)cc3)nn2)cnn1 [Example 11] | -17.6% | 10.3 nM
Cc1nnn(-c2ccc(C(F)F)cc2)c1COc1ccc(-n2cc(C(F)(F)F)cn2)nn1 [Example 25] | -0.7% | –
Cc1nnn(-c2ccc(C(F)F)cc2)c1COc1ccc(-c2cnc(OCC(C)(C)O)nc2)nn1 [Example 4] | -41.5% | 22.8 nM
Cc1ncc(-c2ccc(OCc3c(C)nnn3-c3ccc(C(F)F)cc3)nn2)o1 [Example 6] | -33.3% | 6.9 nM
Cc1nnn(-c2ccc(C(F)F)cc2)c1COc1ccc(-c2cncc(-n3ccnc3)c2)nn1 [Example 8] | -19.5% | 17 nM
Cc1ncn(-c2ccc(OCc3c(C)nnn3-c3ccc(C(F)F)cc3)nn2)n1 [Example 33] | -22% | 11.2 nM
Cc1nnn(-c2ccc(C(F)F)cc2)c1COc1ccc(-c2ccnc(O)c2)nn1 [Example 2, 4-[6-({1-[4-(difluoromethyl)phenyl]-4-methyl-1H-1,2,3-triazol-5-yl}methoxy)pyridazin-3-yl]pyridin-2-ol] | -57% | 6 nM
Cc1nnn(-c2ccc(C(F)F)cc2)c1COc1ccc(-n2ccc(C(N)=O)n2)nn1 [Example 21] | 2% | –

The remaining compounds from weak to strong by EC50, led by results:

Assay B: GABAA α5β3γ2 Emax vs GABA | EC50 | Structure (SMILES)
-32% | 6 nM | CCn1cc(-c2ccc(OCc3c(C)nnn3-c3ccc(C(F)F)cc3)nn2)cn1 [Example 7]
-37.7% | 5.8 nM | Cc1nnn(-c2ccc(C(F)F)cc2)c1COc1ccc(-c2cnn(C)c2)nn1 [Example 5]
-22.8% | 5.7 nM | CC(=O)c1cn(-c2ccc(OCc3c(C)nnn3-c3ccc(C(F)F)cc3)nn2)cn1 [Example 32]
-28.2% | 4.7 nM | Cc1nnn(-c2ccc(C(F)F)cc2)c1COc1ccc(-n2cnc(C(=O)O)c2)nn1 [Example 37, 1-[6-({1-[4-(difluoromethyl)phenyl]-4-methyl-1H-1,2,3-triazol-5-yl}methoxy)pyridazin-3-yl]-1H-imidazole-4-carboxylic acid]
-19.7% | 4.4 nM | Cc1nnn(-c2ccc(C(F)F)cc2)c1COc1ccc(-n2ccc(C#N)n2)nn1 [Example 20]
-27.5% | 3.7 nM | Cc1nnn(-c2ccc(C(F)F)cc2)c1COc1ccc(-n2cnc(Cl)c2)nn1 [Example 18]
-27% | 3.4 nM | Cc1nnn(-c2ccc(C(F)F)cc2)c1COc1ccc(-n2cc3c(n2)CCNC3=O)nn1 [Example 26]
-47.3% | 2.3 nM | CNC(=O)c1cn(-c2ccc(OCc3c(C)nnn3-c3ccc(C(F)F)cc3)nn2)cn1 [Example 14]
-21.7% | 2.1 nM | Cc1nnn(-c2ccc(C(F)F)cc2)c1COc1ccc(-n2cnc(CN)c2)nn1 [Example 35, {1-[6-({1-[4-(difluoromethyl)phenyl]-4-methyl-1H-1,2,3-triazol-5-yl}methoxy)pyridazin-3-yl]-1H-imidazol-4-yl}methanamine]
-17% | 1.9 nM | Cc1nnn(-c2ccc(C(F)F)cc2)c1COc1ccc(-n2cnc(C(C)O)c2)nn1 (centres unmarked) [Example 40]
-17.3% | 1.8 nM | Cc1nnn(-c2ccc(C(F)F)cc2)c1COc1ccc(-n2cnc(C(C)(C)O)c2)nn1 [Example 39, 2-{1-[6-({1-[4-(difluoromethyl)phenyl]-4-methyl-1H-1,2,3-triazol-5-yl}methoxy)pyridazin-3-yl]-1H-imidazol-4-yl}propan-2-ol]
-29% | 1.8 nM | COC(=O)c1cn(-c2ccc(OCc3c(C)nnn3-c3ccc(C(F)F)cc3)nn2)cn1 [Example 29]
-23% | 1.7 nM | Cc1nnn(-c2ccc(C(F)F)cc2)c1COc1ccc(-n2cnc(C=O)c2)nn1 [Example 17]
-23% | 1.7 nM | Cc1nnn(-c2ccc(C(F)F)cc2)c1COc1ccc(-n2cnc(CO)c2)nn1 [Example 38, {1-[6-({1-[4-(difluoromethyl)phenyl]-4-methyl-1H-1,2,3-triazol-5-yl}methoxy)pyridazin-3-yl]-1H-imidazol-4-yl}methanol]
-42.5% | 1.4 nM | Cc1nnn(-c2ccc(C(F)F)cc2)c1COc1ccc(-n2cnc(C(F)F)c2)nn1 [Example 15]
-17.3% | 0.5 nM | Cc1nnn(-c2ccc(C(F)F)cc2)c1COc1ccc(-c2cncnc2)nn1 [Example 22]
-35.2% | 0.4 nM | Cc1nnn(-c2ccc(C(F)F)cc2)c1COc1ccc(-n2cnc(C(N)=O)c2)nn1 [Example 27, 1-[6-({1-[4-(difluoromethyl)phenyl]-4-methyl-1H-1,2,3-triazol-5-yl}methoxy)pyridazin-3-yl]-1H-imidazole-4-carboxamide]
